We go through 33 compounds from patent publication EP4553077A1 (Kinoteck Therapeutics Co., Ltd, priority 2022, dated 2024).

This experiment has as its target Ba/F3-TEL-FGFR2 (Homo sapiens, UniProt P21802+P41212). The experiment in a line: Cell viability (proliferation inhibition) of Ba/F3 cells, CellTiter Glo. The conditions noted are these: read-out: Ba/F3 cell FGFR2 (IC50 nM), 72 h. For orientation: Cellular ATP, detected with luciferase, serves as a proxy for viable cell number.

Sequence of Ba/F3-TEL-FGFR2 (P21802 481-770 limits assumed, one chain of several): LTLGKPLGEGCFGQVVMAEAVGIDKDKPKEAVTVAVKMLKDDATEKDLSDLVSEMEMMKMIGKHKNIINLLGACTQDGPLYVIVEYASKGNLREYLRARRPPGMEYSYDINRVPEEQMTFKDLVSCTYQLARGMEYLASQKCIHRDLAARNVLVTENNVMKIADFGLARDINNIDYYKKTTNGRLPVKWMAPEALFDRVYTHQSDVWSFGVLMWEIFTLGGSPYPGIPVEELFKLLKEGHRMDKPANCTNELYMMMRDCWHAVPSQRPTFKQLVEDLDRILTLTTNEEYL

For the compound `CC#CC(=O)Nc1ccc(-c2c(-c3ccc(N=S4(=O)CCCC4)cc3)c3c(N)ncnc3n2C)cc1` [Compound 60, N-(4-(4-amino-7-methyl-5-(4-((1-oxotetrahydro-1 λ^6-thiophene-1-ylidene)amino)phenyl) -7H-pyrrolo [2,3-d]pyrimidin-6-yl)phenyl) but-2-ynamide], the IC50 is 13.1 nM.
Take `C=C(C)C(=O)Nc1ccc(-c2c(C3=CCC(=S(=O)(CC)C(C)C)C=C3)c3c(N)ncnc3n2C)cc1` (stereo not drawn) [Compound 62, N-(4-(4-amino-5-(4-(ethyl(isopropyl)(oxo)-1λ^6-sulfanylidene)phenyl) -7-methyl-7H-pyrrolo[2,3-d]pyrimidin-6-yl)-phenyl)methacrylamide]: the IC50 is 9.2 nM.
In the case of `C=C(C)C(=O)Nc1ccc(-c2c(-c3ccc(N=S4(=O)CCCC4)cc3F)c3c(N)ncnc3n2C)c(F)c1` [Compound 61, N-(4-(4-amino-5-(2-fluoro-4-((1-oxotetrahydro-1λ^6-thiophene-1-ylidene)amino)phenyl)-7-methyl-7H-pyrrolo[2,3-d]pyrimidin-6-yl)-3-fluorophenyl) methacrylamide], the IC50 stood at 150 nM.
Turning to `C=C(C)C(=O)Nc1ccc(-c2c(-c3ccc(N=S4(=O)CC5(CC5)C4)cc3)c3c(N)ncnc3n2C)c(F)c1` [Compound 72], the IC50 turned out to be 2.2 nM.
Consider `C=C(C)C(=O)Nc1ccc(-c2c(-c3ccc(N=S4(=O)CCCC4)cc3)c3c(N)ncnc3n2CCN(C)C)c(F)c1` [Compound 78, N-(4-(4-amino-7-(2-(dimethylamino)ethyl) -5-(4-((1-hydroperoxide-1λ^6-thiophene-1-ylidene)amino)phenyl) -7H-pyrrolo [2,3-d]pyrimidin-6-yl) -3-fluorophenyl) methacrylamide], for which the IC50 turned out to be 585 nM.
On to `C=C(C)C(=O)Nc1ccc(-c2c(-c3ccc(N=S4(=O)CCCC4)cc3)c3c(N)ncnc3n2CC(C)(C)O)c(F)c1` [Compound 79, N-(4-(4-amino-7-(2-hydroxy-2-methylpropyl)-5-(4-((1-hydroperoxid-1λ^6-thiophene-1-ylidene)amino)phenyl) -7H-pyrrolo [2,3-d]pyrimidin-6-yl) -3-fluorophenyl) methacrylamide], for which the IC50 was 61.1 nM.
As for `C=C(C)C(=O)Nc1ccc(-c2c(-c3ccc(N=S(=O)(CC)CC)cc3)c3c(N)ncnc3n2CCOC)c(F)c1` [Compound 86], the IC50 was 67.4 nM.
In the case of `C=C(C)C(=O)Nc1ccc(-c2c(-c3ccc(N=S(C)(C)=O)c(F)c3)c3c(N)ncnc3n2C)cc1` [Compound 44], the IC50 worked out at 216 nM.
Regarding `C=C(C)C(=O)Nc1ccc(-c2c(-c3ccc(N=S4(=O)CCCCC4)c(OC)c3)c3c(N)ncnc3n2C)c(F)c1` [Compound 5, N-(4-(4-amino-5-(3-methoxy-4-(1-oxotetrahydro-2H-1λ^6-thiopyran-1-imino)phenyl)-7-methyl-7H-pyrrolo [2,3-d]pyrimidin-6-yl)-3-fluorophenyl) methacrylamide], the IC50 turned out to be 29.3 nM.
In the case of `C=C(C)C(=O)Nc1ccc(-c2c(-c3ccc(N=S4(=O)CCCCC4)cc3F)c3c(N)ncnc3n2C)cc1` [Compound 43, N-(4-(4-amino-5-(2-fluoro-4-((1-oxotetrahydro-2H-1λ^6-thiopyran-1-ylidene)amino)phenyl) -7-methyl-7H-pyrrolo [2,3-d]pyrimidin-6-yl)phenyl) methacrylamide], the IC50 worked out at 14.2 nM.
As for `C=C(C)C(=O)Nc1ccc(-c2c(-c3ccc(N=S4(=O)CC(OC)(OC)C4)c(F)c3)c3c(N)ncnc3n2C)cc1` [Compound 10], the IC50 was 107 nM.
With `C=C(C)C(=O)Nc1ccc(F)c(-c2c(-c3ccc(N=S4(=O)CCCCC4)c(F)c3)c3c(N)ncnc3n2C)c1` [Compound 12, N-(3-(4-amino-5-(3-fluoro-4-((1-oxotetrahydro-2H-1 λ^6-thiopyran-1-ylidene)amino)phenyl) -7-methyl-7H-pyrrolo [2,3-d]pyrimidin-6-yl) -4-fluorophenyl) methacrylamide], the IC50 came out at 276 nM.
Turning to `C=CC(=O)Nc1ccc(-c2c(-c3ccc(N=S4(=O)CCCC4)cc3)c3c(N)ncnc3n2C)c(F)c1` [Compound 110], the IC50 was determined as 2 nM.
For “N- (4- (4-amino-5- (4- (cyclopentyl (methyl) (oxo) - λ^6-sulfanylidene) amino) phenyl) -7-methyl-7H-pyrrole [2,3-d] pyrimidin-6-yl) -3-fluorophenyl) methacrylamide [Compound 49]”, the IC50 came out at 12.8 nM.
For `C=C(C)C(=O)Nc1ccc(-c2c(-c3ccc(N=S(C)(C)=O)cc3)c3c(N)ncnc3n2C)cc1` [Compound 45], the IC50 turned out to be 83.1 nM.
As to `C=C(C)C(=O)Nc1ccc(-c2c(-c3ccc(N=S4(=O)CCCCC4)cc3)c3c(N)ncc(C#N)c3n2C)c(F)c1` [Compound 64, N-(4-(4-amino-7-cyano-1-methyl-3-(4-((1-oxotetrahydro-2H-1λ^6-thiopyran-1-ylidene)amino)phenyl) -1H pyrrolo [3,2-c]pyridine-2-yl) -3-fluorophenyl) methacrylamide], the IC50 came to 658 nM.
Take `C=C(C)C(=O)Nc1ccc(-c2c(-c3ccc(N=S(=O)(C4CC4)C4CC4)cc3)c3c(N)ncnc3n2C)cc1` [Compound 93, N-(4-(4-amino-5-(4-((dicyclopropyl (oxo)-λ^6-sulfaneylidene)amino)phenyl)-7-methyl-7H-pyrrolo [2,3-d]pyrimidin-6-yl)phenyl) methacrylamide]: the IC50 stood at 31.7 nM.
As to `C=C(C)C(=O)Nc1ccc(-c2c(-c3ccc(N=S4(=O)CCCCC4)c(F)c3)c3c(N)ncnc3n2C)cc1` [Compound 69, N-(4-(4-amino-5-(3-fluoro-4-((1-oxotetrahydro-2H-1λ^6-thiopyran-1-ylidene)amino)phenyl) -7-methyl-7H-pyrrolo [2,3-d]pyrimidin-6-yl)phenyl) methacrylamide], the IC50 was found to be 11.4 nM.
`C=C(C)C(=O)Nc1ccc(-c2c(-c3ccc(N=S(=O)(N4CCC4)C(F)(F)F)c(F)c3)c3c(N)ncnc3n2C)cc1` (stereo not drawn) [Compound 55, N-(4-(4-amino-5-(4-((azetidine 1-yl (oxo) (trifluoromethyl) -λ^6-sulfanylidene)amino)-3-fluorophenyl)-7-methyl-7H-pyrrolo[2,3-d]pyrimidin-6-yl)phenyl) methacrylamide]: the IC50 came to 3 nM.
In the case of `C=C(C)C(=O)Nc1cc(-c2c(-c3ccc(N=S4(=O)CCCCC4)c(F)c3)c3c(N)ncnc3n2C)ccc1F` [Compound 38, N-(5-(4-amino-5-(3-fluoro-4-((1-oxotetrahydro-2H-1 λ^6-thiopyran-1-ylidene)amino)phenyl) -7-methyl-7H-pyrrolo [2,3-d]pyrimidin-6-yl) -2-fluorophenyl) methacrylamide], the IC50 was determined as 247 nM.
`C=C(C)C(=O)Nc1ccc(-c2c(-c3ccc(N=S4(=O)CCN(C)CC4)c(F)c3)c3c(N)ncnc3n2C)cc1` [Compound 30, N-(4-(4-amino-5-(3-fluoro-4-((4-methyl-1-oxo-1 λ^6-thiomorpholin-1-ylidene)amino)phenyl) -7-methyl-7H-pyrrolo [2,3-d]pyrimidin-6-yl)phenyl) methacrylamide]: the IC50 was 1440 nM.
Regarding `CC#CC(=O)Nc1ccc(-c2c(-c3ccc(N=S(C)(C)=O)c(F)c3)c3c(N)ncnc3n2C)cc1C(C)(C)O` [Compound 20], the IC50 was determined as 86.7 nM.
Regarding `C=C(C)C(=O)Nc1ccc(-c2c(-c3ccc(N=S4(=O)CCCCC4)c(Cl)c3)c3c(N)ncnc3n2C)cc1` [Compound 40, N-(4-(4-amino-5-(3-chloro-4-((1-oxotetrahydro-2H-1λ^6 - thiopyran-1-ylidene)amino)phenyl) -7-methyl-7H-pyrrolo [2,3-d]pyrimidin-6-yl)phenyl) methacrylamide], the IC50 amounted to 7.7 nM.
Take `CC#CC1=Nc2ccc(-c3c(-c4ccc(N=S(C)(C)=O)c(F)c4)c4c(N)ncnc4n3C)cc2C(C)(C)O1` [Compound 19]: the IC50 stood at 2980 nM.
Consider `C=C(C)C(=O)Nc1ccc(-c2c(-c3ncc(N=S4(=O)CCCCC4)cc3F)c3c(N)ncnc3n2C)cc1` [Compound 36, N-(4-(4-amino-5-(3-fluoro-5-((1-oxotetrahydro-2H-1 λ^6-thiopyran-1-ylidene)amino)pyridin-2-yl) -7-methyl-7H-pyrrole [2,3-d]pyrimidin-6-yl)phenyl) methacrylamide], for which the IC50 was determined as 53.5 nM.
For the compound `C=C(C)C(=O)Nc1ccc(-c2c(-c3ccc(N=S(=O)(CC)CC)cc3F)c3c(N)ncnc3n2C)c(F)c1` [Compound 85], the IC50 came to 907 nM.
For `C=C(COC)C(=O)Nc1ccc(-c2c(-c3ccc(N=S4(=O)CCCC4)c(F)c3)c3c(N)ncnc3n2C)cc1` [Compound 18, N-(4-(4-amino-5-(3-fluoro-4-((1-oxotetrahydro-1 λ^6-thiophene-1-ylidene)amino)phenyl) -7-methyl-7H-pyrrolo [2,3-d]pyrimidin-6-yl)phenyl) -2-(methoxymethyl) acrylamide], the IC50 amounted to 21.5 nM.
For the compound `C=CC(=O)Nc1ccc(-c2c(-c3ccc(N=S4(=O)CCCCC4)c(F)c3)c3c(N)ncnc3n2C)cc1` [Compound 13, N-(4-(4-amino-5-(3-fluoro-4-((1-oxotetrahydro-2H-1 λ^6-thiopyran-1-ylidene)amino)phenyl) -7-methyl-7H-pyrrolo [2,3-d]pyrimidin-6-yl)phenyl) acrylamide], the IC50 came to 0.6 nM.
For `C=C(CN(C)C)C(=O)Nc1ccc(-c2c(-c3ccc(N=S4(=O)CCCC4)c(F)c3)c3c(N)ncnc3n2C)cc1` [Compound 92] the value was 0.8 nM.
Consider `C=C(C)C(=O)Nc1ccc(-c2c(-c3cc(F)c(N=S(=O)(CC)CC)cc3F)c3c(N)ncnc3n2C)c(F)c1` [Compound 76], for which the IC50 was 6.1 nM.
The same measure for `C=C(C)C(=O)Nc1ccc(-c2c(-c3ccc(N=S(=O)(CC)CC)cc3)c3c(N)ncnc3n2CC(F)(F)F)c(F)c1` [Compound 103]: 13.9 nM.
On to `C=C(C)C(=O)Nc1ccc(-c2c(-c3ccc(N=S4(=O)CCOCC4)cc3)c3c(N)ncnc3n2C)c(F)c1` [Compound 105], for which the IC50 is 20.9 nM.
The same measure for `CC#CC(=O)N1CC=C(c2c(-c3ccc(N=S4(=O)CCCCC4)cc3)c3c(N)ncnc3n2C)CC1` [Compound 66]: 27.8 nM.
